According to patent US20070015661A1, “Herbicide/safener combination” (Bayer CropScience GmbH, priority 2005, published 2007):

Tests used:
[1] = tested on: cotton, oilseed rape, sugar beet and Gramineae crops such as barley, wheat, rye, millet, corn or rice; assay: Compatibility with crop plants (greenhouse, visual scoring); assay type: in vivo; details: herbicide/safener combination, above all with safeners II-1, II-9, III-1, b-11, b-14, IX-A3; pre-emergence method or post-emergence method; four to five weeks after application
Text: In further greenhouse trials, seeds of a relatively large number of crop plants and weeds were placed into sandy loam soil and covered with soil. Some of the pots were immediately treated as described in Section 1, the others were placed in a greenhouse until the plants had developed two to three true leaves and were then sprayed with various dosages of the herbicide/safener combinations according to the invention, as described in Section 2.

[2] = tested on: Sinapis alba, Chrysanthemum segetum, Avena sativa, Stellaria media, Echinochloa crus-galli, Lolium multiflorum, Setaria viridis, Abutilon theophrasti …; assay: Pre-emergence action against weeds (greenhouse pot test, optical scoring); assay type: in vivo, monocotyledonous and dicotyledonous weed plants; details: herbicide/safener combination, above all with safeners II-1, II-9, III-1, b-11, b-14, IX-A3; pre-emergence method; 500 g or less of herbicide (A) per hectare; 3 to 4 weeks
Text: Seeds or rhizome pieces of monocotyledonous and dicotyledonous weed plants were placed in sandy loam soil in cardboard pots and covered with soil. The active compounds (A) and (B), formulated in the form of wettable powders or emulsion concentrates, were then applied to the surface of the covering soil in various dosages as aqueous suspensions or emulsions using a water application rate of 300 to 800 l/ha (converted).
After the treatment, the pots were placed in a greenhouse and kept under good growth conditions for the weeds. Optical scoring of the damage to the plants or emerged plants was carried out after emergence of the test plants after a trial period of 3 to 4 weeks, in comparison to untreated controls. As shown by the results, the tested herbicide/safener combinations have good herbicidal pre-emergence activity against a broad spectrum of weed grasses and broad-leaved weeds.

[3] = tested on: Sinapis alba, Echinochloa crus-galli, Lolium multiflorum, Chrysanthemum segetum, Setaria viridis, Abutilon theophrasti, Amaranthus retroflexus, Panicum …; assay: Post-emergence action against weeds (greenhouse pot test, visual scoring); assay type: in vivo, monocotyledonous and dicotyledonous weeds; details: herbicide/safener combination, above all with safeners II-1, II-9, III-1, b-11, b-14, IX-A3; post-emergence method, three-leaf stage; 500 g or less of herbicide (A) per hectare; three to four weeks
Description: Seeds or rhizome pieces of monocotyledonous and dicotyledonous weeds were placed into sandy loam soil in plastic pots, covered with soil and grown in a greenhouse under good growth conditions. Three weeks after sowing, the test plants were treated at the three-leaf stage. The compounds according to the invention, formulated as wettable powders or as emulsion concentrates, were sprayed onto the green parts of the plants at various dosages using a water application rate of 300 to 800 l/ha (converted). The test plants were stood in the greenhouse under optimum growth conditions for about three to four weeks, and the action of the preparations was then scored visually in comparison to untreated controls. Post-emergence, too, the herbicide/safener combinations according to the invention have good herbicidal activity against a broad spectrum of economically important weed grasses and broad-leaved weeds.

**Q.** How did the “damage to crop plants (visual scoring)” value [1] turn out when `Cn1nc(C(F)(F)F)c(C(Cl)S(=O)(=O)C2=NOC(C)(C)C2)c1Cl` (stereo not drawn) [I-216.1] was run?
**A.** did not cause any damage

**Q.** And the “herbicidal activity against harmful plants (optical scoring of damage vs untreated controls)” value [2]?
**A.** very good herbicidal activity

**Q.** And the “herbicidal activity against harmful plants (visual scoring vs untreated controls)” value [3]?
**A.** very good herbicidal activity

**Q.** For `CC1(C)CC(S(=O)(=O)C(F)c2cc(F)ccc2F)=NO1` (stereo not drawn) [I-249.1], which “damage to crop plants (visual scoring)” value [1] is on record?
**A.** did not cause any damage

**Q.** And the “herbicidal activity against harmful plants (optical scoring of damage vs untreated controls)” value [2]?
**A.** very good herbicidal activity

**Q.** What about the “herbicidal activity against harmful plants (visual scoring vs untreated controls)” value [3] of the same compound?
**A.** very good herbicidal activity

**Q.** Which results are given for `CC1(C)CC(S(=O)(=O)C(Cl)c2ccccc2Cl)=NO1` (stereo not drawn) [I-6.1]?
**A.** damage to crop plants (visual scoring) [1]: did not cause any damage; herbicidal activity against harmful plants (optical scoring of damage vs untreated controls) [2]: very good herbicidal activity; herbicidal activity against harmful plants (visual scoring vs untreated controls) [3]: very good herbicidal activity

**Q.** What does the source list for `CC1(C)CC(S(=O)(=O)C(F)c2c(F)cccc2F)=NO1` (stereo not drawn) [I-250.1]?
**A.** damage to crop plants (visual scoring) [1]: did not cause any damage; herbicidal activity against harmful plants (optical scoring of damage vs untreated controls) [2]: very good herbicidal activity; herbicidal activity against harmful plants (visual scoring vs untreated controls) [3]: very good herbicidal activity

**Q.** Which “damage to crop plants (visual scoring)” value [1] does the source give for `CC1(C)CC(S(=O)(=O)C(Cl)c2ccccc2)=NO1` (stereo not drawn) [I-1.1] here?
**A.** did not cause any damage

**Q.** What about the “herbicidal activity against harmful plants (optical scoring of damage vs untreated controls)” value [2] of the same compound?
**A.** very good herbicidal activity

**Q.** What about the “herbicidal activity against harmful plants (visual scoring vs untreated controls)” value [3] of the same compound?
**A.** very good herbicidal activity

**Q.** With `CCC1(C)CC(S(=O)(=O)C(Cl)c2cc(C(F)(F)F)ccc2Cl)=NO1` (stereo not drawn) [I-98.2] as the compound, how does the “damage to crop plants (visual scoring)” value [1] read?
**A.** did not cause any damage

**Q.** What about the “herbicidal activity against harmful plants (optical scoring of damage vs untreated controls)” value [2] of the same compound?
**A.** very good herbicidal activity

**Q.** What about the “herbicidal activity against harmful plants (visual scoring vs untreated controls)” value [3] of the same compound?
**A.** very good herbicidal activity

**Q.** What does the source list for `CC1(C)CC(S(=O)(=O)C(Cl)c2ccccc2OC(F)(F)F)=NO1` (stereo not drawn) [I-10.1]?
**A.** damage to crop plants (visual scoring) [1]: did not cause any damage; herbicidal activity against harmful plants (optical scoring of damage vs untreated controls) [2]: very good herbicidal activity; herbicidal activity against harmful plants (visual scoring vs untreated controls) [3]: very good herbicidal activity

**Q.** For `Cn1nc(C(F)(F)F)c(C(Cl)[S+]([O-])C2=NOC(C)(C)C2)c1OC(F)F` (stereo not drawn) [I-289.1], which “damage to crop plants (visual scoring)” value [1] is on record?
**A.** did not cause any damage

**Q.** What about the “herbicidal activity against harmful plants (optical scoring of damage vs untreated controls)” value [2] of the same compound?
**A.** very good herbicidal activity

**Q.** And the “herbicidal activity against harmful plants (visual scoring vs untreated controls)” value [3]?
**A.** very good herbicidal activity

**Q.** Which “damage to crop plants (visual scoring)” value [1] does the source give for `CC1(C)CC(S(=O)(=O)C(Cl)c2c(F)cccc2F)=NO1` (stereo not drawn) [I-3.1] here?
**A.** did not cause any damage

**Q.** And the “herbicidal activity against harmful plants (optical scoring of damage vs untreated controls)” value [2]?
**A.** very good herbicidal activity

**Q.** And the “herbicidal activity against harmful plants (visual scoring vs untreated controls)” value [3]?
**A.** very good herbicidal activity

**Q.** What does the source list for `CCC1(C)CC(S(=O)(=O)C(Cl)c2c(F)cccc2F)=NO1` (stereo not drawn) [I-3.2]?
**A.** damage to crop plants (visual scoring) [1]: did not cause any damage; herbicidal activity against harmful plants (optical scoring of damage vs untreated controls) [2]: very good herbicidal activity; herbicidal activity against harmful plants (visual scoring vs untreated controls) [3]: very good herbicidal activity

**Q.** What does the source list for `CC1(C)CC(S(=O)(=O)C(Cl)c2c(F)cccc2C(F)(F)F)=NO1` (stereo not drawn) [I-117.1]?
**A.** damage to crop plants (visual scoring) [1]: did not cause any damage; herbicidal activity against harmful plants (optical scoring of damage vs untreated controls) [2]: very good herbicidal activity; herbicidal activity against harmful plants (visual scoring vs untreated controls) [3]: very good herbicidal activity

**Q.** Which “damage to crop plants (visual scoring)” value [1] does the source give for `CC1(C)CC(S(=O)(=O)C(Cl)c2cc(C(F)(F)F)ccc2F)=NO1` (stereo not drawn) [I-4.1] here?
**A.** did not cause any damage

**Q.** What about the “herbicidal activity against harmful plants (optical scoring of damage vs untreated controls)” value [2] of the same compound?
**A.** very good herbicidal activity

**Q.** What about the “herbicidal activity against harmful plants (visual scoring vs untreated controls)” value [3] of the same compound?
**A.** very good herbicidal activity

**Q.** How did the “damage to crop plants (visual scoring)” value [1] turn out when `Cn1nc(C(F)(F)F)c(C(Br)S(=O)(=O)C2=NOC(C)(C)C2)c1OC(F)F` (stereo not drawn) [I-275.1] was run?
**A.** did not cause any damage

**Q.** And the “herbicidal activity against harmful plants (optical scoring of damage vs untreated controls)” value [2]?
**A.** very good herbicidal activity

**Q.** What about the “herbicidal activity against harmful plants (visual scoring vs untreated controls)” value [3] of the same compound?
**A.** very good herbicidal activity

**Q.** How did the “damage to crop plants (visual scoring)” value [1] turn out when `CC1(C)CC(S(=O)(=O)C(Cl)c2c(F)cccc2Cl)=NO1` (stereo not drawn) [I-5.1] was run?
**A.** did not cause any damage

**Q.** And the “herbicidal activity against harmful plants (optical scoring of damage vs untreated controls)” value [2]?
**A.** very good herbicidal activity

**Q.** What about the “herbicidal activity against harmful plants (visual scoring vs untreated controls)” value [3] of the same compound?
**A.** very good herbicidal activity

**Q.** `CCC1(C)CC(S(=O)(=O)C(Cl)c2cc(F)ccc2F)=NO1` (stereo not drawn) [I-2.2] was tested. Which “damage to crop plants (visual scoring)” value [1] did it give?
**A.** did not cause any damage

**Q.** What about the “herbicidal activity against harmful plants (optical scoring of damage vs untreated controls)” value [2] of the same compound?
**A.** very good herbicidal activity

**Q.** What about the “herbicidal activity against harmful plants (visual scoring vs untreated controls)” value [3] of the same compound?
**A.** very good herbicidal activity

**Q.** `CC1(C)CC(S(=O)(=O)C(Cl)c2cc(F)ccc2F)=NO1` (stereo not drawn) [I-2.1] was tested. Which “damage to crop plants (visual scoring)” value [1] did it give?
**A.** did not cause any damage

**Q.** And the “herbicidal activity against harmful plants (optical scoring of damage vs untreated controls)” value [2]?
**A.** very good herbicidal activity

**Q.** What about the “herbicidal activity against harmful plants (visual scoring vs untreated controls)” value [3] of the same compound?
**A.** very good herbicidal activity

**Q.** Which “damage to crop plants (visual scoring)” value [1] does the source give for `CC1(C)CC(S(=O)(=O)C(Cl)c2c(Cl)cccc2Cl)=NO1` (stereo not drawn) [I-109.1] here?
**A.** did not cause any damage

**Q.** What about the “herbicidal activity against harmful plants (optical scoring of damage vs untreated controls)” value [2] of the same compound?
**A.** very good herbicidal activity

**Q.** And the “herbicidal activity against harmful plants (visual scoring vs untreated controls)” value [3]?
**A.** very good herbicidal activity

**Q.** For `Cn1nc(C(F)(F)F)c(C(F)S(=O)(=O)C2=NOC(C)(C)C2)c1OC(F)F` (stereo not drawn) [I-260.1], which “damage to crop plants (visual scoring)” value [1] is on record?
**A.** did not cause any damage

**Q.** What about the “herbicidal activity against harmful plants (optical scoring of damage vs untreated controls)” value [2] of the same compound?
**A.** very good herbicidal activity

**Q.** What about the “herbicidal activity against harmful plants (visual scoring vs untreated controls)” value [3] of the same compound?
**A.** very good herbicidal activity

**Q.** Which results are given for `CCC1(C)CC(S(=O)(=O)C(Cl)c2c(C(F)(F)F)nn(C)c2Cl)=NO1` (stereo not drawn) [I-216.2]?
**A.** damage to crop plants (visual scoring) [1]: did not cause any damage; herbicidal activity against harmful plants (optical scoring of damage vs untreated controls) [2]: very good herbicidal activity; herbicidal activity against harmful plants (visual scoring vs untreated controls) [3]: very good herbicidal activity

**Q.** What does the source list for `Cn1nc(C(F)(F)F)c(C(Cl)S(=O)(=O)C2=NOC(C)(C)C2)c1OC(F)F` (stereo not drawn) [I-206.1]?
**A.** damage to crop plants (visual scoring) [1]: did not cause any damage; herbicidal activity against harmful plants (optical scoring of damage vs untreated controls) [2]: very good herbicidal activity; herbicidal activity against harmful plants (visual scoring vs untreated controls) [3]: very good herbicidal activity

**Q.** Which results are given for `CC1(C)CC(S(=O)(=O)C(Cl)c2cc(F)cc(F)c2F)=NO1` (stereo not drawn) [I-129.1]?
**A.** damage to crop plants (visual scoring) [1]: did not cause any damage; herbicidal activity against harmful plants (optical scoring of damage vs untreated controls) [2]: very good herbicidal activity; herbicidal activity against harmful plants (visual scoring vs untreated controls) [3]: very good herbicidal activity
